Test results reported in patent publication US12281225B2, “Process for preparing stable polymers containing vinylimidazole” (BASF SE, priority 2018, dated 2025).

Test: Physical stability; visual assessment (color, turbidity, phase separation)
Assay type: physicochemical
Design: key: ++: no discernible change with respect to color, turbidity or phase separation; +: marginal change in color number, somewhat increased Tyndall effect but no turbidity; 0: easily discernible increase in color number and moderate turbidity−no phase separation; −: turbidity and change in color number readily discernible by visual assessment; −−: strong color change with strong turbidity and incipient phase separation
Source text: Physical stability; visual assessment according to:
++=no discernible change with respect to color, turbidity or phase separation; +=marginal change in color number, somewhat increased Tyndall effect but no turbidity; 0=easily discernible increase in color number and moderate turbidity−no phase separation; − turbidity and change in color number readily discernible by visual assessment; −− strong color change with strong turbidity and incipient phase separation.
Before storage, all batches could be rated ++ (no turbidity or phase separation; no influence of the biocide on the color number of the product).

[1] = Polymer P5 (HP56) with stabilizer

Compound | Physical stability, 60 d 40° C.* (Polymer P1 with stabilizer) | Physical stability, 60 d 40° C.* (Polymer P2 with stabilizer) | Physical stability, 60 d 40° C.* (Polymer P3 with stabilizer) | Physical stability, 60 d 40° C.* (Polymer P4 with stabilizer) | Physical stability, 60 d 40° C.* [1] | Physical stability, 60 d 40° C.* (Polymer P6 with stabilizer) | Physical stability, 60 d 40° C.* (Polymer P7 with stabilizer) | Physical stability, 60 d 40° C.* (Polymer P8 with stabilizer) | Physical stability, 60 d 40° C.* (Polymer P9 with stabilizer)
CCCCCCCCCCCCCCCC[N+](C)(C)Cc1ccccc1.[Cl-] [Polymer 16-BAC, cetylalkonium chloride] | + | + | + | + | + | + | + | + | ++
Cn1sc(Cl)cc1=O [CMIT, 5-chloro-N-methylisothiazolin-3-one] | −− | −− | − | −− | −− | −− | − | −− | −−
CCCCCCCCn1sc(Cl)c(Cl)c1=O [DCOIT, dichloroctylisothiazolinone] | −− | −− | −− | − | −− | −− | −− | −− | −
O=c1[nH]sc2ccccc12 [BIT, 1,2-benzisothiazolin-3-one] | − | − | − | − | − | − | − | −− | −
CCCCNC(=O)OCC#CI [Iodopropynyl butyl carbamate, iodopropynyl butyl carbamate] | − | − | − | − | − | − | − | − | −
Cn1sccc1=O [MIT, methyl-4-isothiazolin-3-one] | − | − | − | − | − | − | − | − | −
benzalkonium chloride [BAC] | + | + | ++ | + | + | + | ++ | + | +
CCCCCCCCn1sccc1=O [OIT, octylisothiazolinone] | −− | −− | −− | −− | −− | −− | −− | −− | −−
